The molecules below were run on P. falciparum 3D7 growth, pLDH absorbance (assay: P. falciparum 3D7 growth inhibition, dose response, strain 3D7 (AID 2305)).
`O=C(/C=C/c1ccc(Cl)c(Cl)c1)NCCCCCN1CCC(NC(=O)Nc2ccc(F)cc2F)CC1` was tested, and the IC50 was 740 nM.
`Cc1cccc2[nH]c(-c3ccc(-c4ccc(CNCCCN5CCCC5=O)cc4)cc3)nc12` gave an IC50 of 630 nM.
With `CCCNCc1ccc(-c2ccc(CN(CCOC)C(=O)COc3ccccc3Cl)cc2)nc1` the IC50 was 910 nM.
Molecule `N#Cc1ccc(OCCN(Cc2ccccc2C(F)(F)F)c2ccc(C#N)c(C(F)(F)F)c2)cc1` has an IC50 of 280 nM.
`Cc1ccc(C(=O)NC2CC2)cc1-c1ccc2c(cnn2S(=O)(=O)c2ccc(F)cc2)c1` showed an IC50 of 290 nM.
For `O=C(Nc1ccccc1)c1cccc(Nc2nccc(Nc3ccc(Oc4ccccc4)cc3)n2)c1`, the IC50 was 1550 nM.
Molecule `CC(C)c1ccc(N2CCN(CCCCNC(=O)c3ccc(NC(=O)c4cc(Cl)cc(Cl)c4)cc3)CC2)cc1` has an IC50 of 160 nM.
Work on `COc1ccccc1-c1[nH]c2ccccc2c1CN1CCC(c2c(C)cccc2C)CC1` yielded an IC50 of 920 nM.
With `NS(=O)(=O)Cc1cccc(-c2ccnc3ccc(-c4cccc(S(N)(=O)=O)c4)cc23)c1` the IC50 was 1560 nM.
`Cc1[nH]c(C)c(-c2ccc(Cl)cc2)c(=O)c1I` was tested, and the IC50 was 670 nM.
`CS(=O)(=O)NCCCNCc1cccc(-c2cccc(-c3nc4ccc(F)cc4[nH]3)c2)c1` showed an IC50 of 940 nM.
`Cc1ccc(C)c(CC(=O)N2CCC(n3c(C)nc4ccc(F)cc43)CC2)c1` gave an IC50 of 190 nM.
`CN(C)CCNCc1ccc(-c2cccc(-c3nc4ccccc4[nH]3)c2)cc1` gave an IC50 of 720 nM.
With `Cc1cc(OCCCN2CCC(NS(=O)(=O)c3ccc(C(F)(F)F)cc3)CC2)c2ccccc2n1` the IC50 was 1220 nM.
In the case of `Fc1ccc2nc(-c3cccc(-c4ccc(CNCc5ccccc5)cc4)c3)[nH]c2c1`, the IC50 is reported as 270 nM.
In the case of `Oc1c(C(Nc2nc3ccccc3s2)c2ccc(OC(F)F)cc2)ccc2cccnc12` (centres undefined), the IC50 is reported as 570 nM.
Work on `CCC(C)NCc1c(O)ccc2c(CNC(C)CC)c(O)ccc12` (centres undefined) yielded an IC50 of 590 nM.
For `COc1ccccc1Cc1c(C)nc2nc(N)nc(N)c2c1C`, the IC50 was 570 nM.
`CN1CCC(C(=O)Nc2cccc(-c3ccc(-c4nc5ccc(F)cc5[nH]4)cc3)c2)CC1` gave an IC50 of 710 nM.
`CCOc1ccc2c(NN=Cc3cccc([N+](=O)[O-])c3)cc(C)nc2c1` was tested, and the IC50 was 220 nM.
Molecule `CN1CCN(c2ccnc3cc4c(cc23)N(C(=O)Nc2ccc(-c3ccncc3)c3ccccc23)CC4)CC1` has an IC50 of 950 nM.
In the case of `FC(F)(F)c1ccc2nc(-c3ccc(-c4cccc(CNCc5cnn(-c6ccccc6)n5)c4)cc3)[nH]c2c1`, the IC50 is reported as 650 nM.
Work on `O=C(/C=C/c1ccc(Cl)cc1Cl)NCCCCCN1CCC(c2c[nH]c3ccccc23)CC1` yielded an IC50 of 940 nM.
With `COC(=O)c1cccc(CNCc2ccc(-c3cccc(-c4nc5ccc(C(F)(F)F)cc5[nH]4)c3)cc2)c1` the IC50 was 160 nM.
For `Cc1cc(-c2cnc(N)c(-c3ccc(N4CCN(C)CC4)nc3)c2)cc(C)c1O`, the IC50 was 1400 nM.
Molecule `O=C(Nc1ccc(Cl)cc1)Nc1ccc(-c2cccc(-c3nc4ccccc4[nH]3)c2)cc1` has an IC50 of 160 nM.
`COc1ccc(-c2nc3c4cc(I)ccc4c4ccccc4c3[nH]2)cc1` showed an IC50 of 1100 nM.
`CC(=O)NCCNc1cc(N2CCc3ncnc(Nc4ccc(OCc5c(F)cccc5F)c(Cl)c4)c3C2)ncn1` showed an IC50 of 160 nM.
`COc1cc(NC(=O)N2CCOC(CCN3CCC(c4ccccc4)CC3)(c3ccc(Cl)c(Cl)c3)C2)cc(OC)c1` (centres undefined) gave an IC50 of 290 nM.
In the case of `O=C(Nc1ccc(-c2ccccc2)s1)N[C@H]1CCN(Cc2ccc(OCCCN3CCCCC3)cc2)C1`, the IC50 is reported as 740 nM.
In the case of `O=S1(=O)NCc2ccc(Nc3nccc(Nc4ccc5c(cnn5Cc5ccccc5)c4)n3)cc21`, the IC50 is reported as 750 nM.
Molecule `CCc1ccc(C2CCN(CCCCNC(=O)c3ccc(-c4ccc(Cl)cc4)cc3)CC2)c(O)c1` has an IC50 of 890 nM.
`CCN1CCN(CCCNc2ccnc3cc(Cl)ccc23)CC1` gave an IC50 of 70 nM.
With `Cc1ccccc1C1CCN(c2ccc(C(=O)Nc3ccccc3)cn2)CC1` the IC50 was 330 nM.
With `CC(CN1CCN(C)CC1)C(=O)Nc1ccc(-c2cccc(-c3nc4ccccc4[nH]3)c2)cc1` (centres undefined) the IC50 was 570 nM.
With `COc1ccc(OC)c(NC(=O)C2c3ccccc3C(=O)N(CC(C)C)C2c2cccs2)c1` (centres undefined) the IC50 was 810 nM.
`CNC(=O)Cc1ccc(C(=O)Nc2cccc(-c3ccc(-c4nc5c(C)cccc5[nH]4)s3)c2)cc1` was tested, and the IC50 was 630 nM.
Work on `CC(=O)Nc1ccc(S(=O)(=O)Nc2c(C)cc(Cc3cnc(N)nc3N)cc2C)cc1` yielded an IC50 of 1000 nM.
For `COc1ccc(-c2cccc(NC(=O)c3cccc(C#N)c3)c2)cc1CN(C)CCN(C)C`, the IC50 was 310 nM.
`COc1ccc(NC(=O)[C@H](CC(C)C)Nc2cc(C)nc(NCc3cccc(C)c3)n2)cc1` was tested, and the IC50 was 1020 nM.
With `CC(C)c1ncc(-c2ccncc2)c(C2CCC(CNC(=O)c3ccncc3)CC2)n1` (centres undefined) the IC50 was 1350 nM.
With `O=C(NC1CCC(CN2CCC(c3c[nH]c4ccccc34)CC2)CC1)c1cc(-c2ccccc2)c(C(F)(F)F)s1` (centres undefined) the IC50 was 170 nM.
With `CN1CCN(C(=O)CN2CCC3(CCC2=O)NC(=O)c2ccccc2O3)CC1` (centres undefined) the IC50 was 210 nM.
For `O=C(/C=C/c1ccc(Cl)c(Cl)c1)NC1CCC(CN2CCC(Cc3c[nH]c4ccccc34)CC2)CC1` (centres undefined), the IC50 was 890 nM.
In the case of `CCCN(Cc1nnc(-c2cccs2)o1)C(=O)CSc1nnnn1-c1ccc(C)c(C)c1`, the IC50 is reported as 580 nM.
For `Nc1cc(C(F)(F)F)ccc1Cl`, the IC50 was 740 nM.
With `COc1ccc(NC(=O)N2CCCN(CCCCCNC(=O)/C=C/c3ccc(C(F)(F)F)cc3)CC2)cc1Cl` the IC50 was 980 nM.
Work on `Cc1cc(N[C@@H](Cc2ccccc2)C(=O)NCCc2ccccc2)nc(NCCc2ccc(F)cc2)n1` yielded an IC50 of 660 nM.
Molecule `CC1(C)CN2CCCC2c2cc(NC(=O)/C=C/c3ccccc3Cl)ccc21` (centres undefined) has an IC50 of 990 nM.

Source: PubChem BioAssay AID2305 (GlaxoSmithKline (GSK), 2010)
